These results are taken from US12617771B2, “Diphenylpyrazole compound, and preparation method therefor and application thereof” (NORTHWEST A&F UNIVERSITY, priority 2021, dated 2026).

In series [1] the test system is resistant strains of Plutella xylostella. Description: Insecticidal synergistic activity with indoxacarb, leaf dip, resistant strains (Huizhou). It counts as in vivo. The note with it: for Resistance ratio to indoxacarb: 48 hours. The procedure:
Experiment: 95% indoxacarb (Ind) original drug was prepared into mother liquor with a concentration of 50000 mg/L. During the test, 6 treatment solutions with concentrations of 500, 250, 125, 62.5, 31.25 and 15.63 mg/L were prepared. 200 mg/L of the compounds PXG1, PXG2 and PXG22 of the present invention were added to each treatment solution, 200 mg/L of diethyl maleate (DEM) was used as the control synergist, and water was used as another control. The Plutella xylostella (Linnaeus) larvae was collected from a vegetable field in Huizhou city, Guangdong Province. Healthy 3rd instar larvae of the same age were selected for indoor biological activity assay.
Clean wild cabbage leaves were cut into discs with a diameter of 6.5 cm (avoiding main veins). The leaves were soaked in the pesticide solution for 10 seconds, then taken out, dried at 25° C., and placed in a petri dish with a diameter of 6.5 cm. 10 larvae of the resistant strains of Plutella xylostella at the early stage of 3rd instar were placed in each petri dish, which was covered with double-layer absorbent roll paper, and covered by the upper cover of the petri dish. It was placed face up in an incubator at a temperature of 25±1° C., a relative humidity of 65%-70%, and a light ratio (L:D) of 16: 8 h. Each treatment was replicated 4 times with 10 larvae per replicate. […] The test process is strictly in accordance with the standard: NY/T 1154.7-2006.
Experimental data analysis was carried out using practical statistical analysis and its computer processing platform (DPS) (TANG Qiyi et al., 1997). The toxicity regression equation of each agent was established, LC50 value and 95% confidence limit were calculated.

Series [2] addresses Pyrausta nubilalis GSTs. Description: Inhibition of total GSTs enzyme of Pyrausta nubilalis (CDNB method). It counts as biochemical. The method, boiled down: (§1)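 Total GSTs were taken from the 14,000 g supernatant of larval/nymph homogenate in 100 mM sodium phosphate with 1 mM EDTA, pH 7.2. Enzyme (5 μg) was preincubated with compound in PBS pH 7.2 containing 1 mM GSH for 10 min at 30 °C, then started with buffer containing 1 mM CDNB. IC50 was derived from inhibition of the 5-min ΔA340, done in triplicate.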

In series [3] the target is Carposina sasakii GSTs. Kind of series: Inhibition of total GSTs enzyme of Carposina sasakii (CDNB method). In kind it is biochemical. The method, boiled down:
as §1

Series [4] addresses PxGSTσ1 (Plutella xylostella, UniProt Q6F436). Kind of series: Inhibition of PxGSTσ1 recombinant protein. In kind it is biochemical. As to conditions: read-out: 100 μM Inhibition rate %. The method, boiled down:
(§2)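 Recombinant Plutella xylostella GSTs (1 μg) preincubated with compound in 100 mM PBS pH 7.2, 10 min, 30 °C; 1 mM CDNB and 1 mM GSH in PBS then added. A340 read every 1 min for 5 min; inhibition from A340 change vs control, IC50 by curve fit, triplicate.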

Series [5] relates to Mythimna separata GSTs. Description: Inhibition of total GSTs enzyme of Mythimna separata (CDNB method). It counts as biochemical. The method, boiled down: as §1
The target in series [6] is Chilo suppressalis GSTs. Kind of series: Inhibition of total GSTs enzyme of Chilo suppressalis (CDNB method). It counts as biochemical. In short, it runs like this:
as §1

For series [7], the target named is PxGSTσ2 (Plutella xylostella, UniProt Q6F443). Kind of series: Inhibition of PxGSTσ2 recombinant protein. It counts as biochemical. The note with it: read-out: 100 μM Inhibition rate %. The method, boiled down: as §2
In series [8] the target is PxGSTδ1 (Plutella xylostella, UniProt D7URW9). Description: Inhibition of PxGSTδ1 recombinant protein. In kind it is biochemical. As to conditions: read-out: 100 μM Inhibition rate %. In short, it runs like this: as §2
Series [9] deals with PxGSTε3 (Plutella xylostella, UniProt O77409). Description: Inhibition of PxGSTε3 recombinant protein. It counts as biochemical. The note with it: read-out: 100 μM Inhibition rate %. In short, it runs like this: as §2
In series [10] the target is Helicoverpa armigera GSTs. Kind of series: Inhibition of total GSTs enzyme of Helicoverpa armigera (CDNB method). It counts as biochemical. The method, boiled down:
as §1

Series [11] has as its system Spodoptera frugiperda GSTs. Kind of series: Inhibition of total GSTs enzyme of Spodoptera frugiperda (CDNB method). It counts as biochemical. The method, boiled down:
as §1

For series [12], the target named is Plutella xylostella GSTs. Description: Inhibition of total GSTs enzyme of Plutella xylostella (CDNB method). It counts as biochemical. In short, it runs like this: as §1
Series [13] deals with Nilaparvata lugens GSTs. Description: Inhibition of total GSTs enzyme of Nilaparvata lugens (CDNB method). In kind it is biochemical. The method, boiled down: as §1
For series [14], the target named is Spodoptera litura GSTs. Kind of series: Inhibition of total GSTs enzyme of Spodoptera litura (CDNB method). In kind it is biochemical. The method, boiled down:
as §1

Where [15] appears, read: indoxacarb alone or with 200 mg/L synergist.

Chain of PxGSTε3 (O77409 entry or part of it): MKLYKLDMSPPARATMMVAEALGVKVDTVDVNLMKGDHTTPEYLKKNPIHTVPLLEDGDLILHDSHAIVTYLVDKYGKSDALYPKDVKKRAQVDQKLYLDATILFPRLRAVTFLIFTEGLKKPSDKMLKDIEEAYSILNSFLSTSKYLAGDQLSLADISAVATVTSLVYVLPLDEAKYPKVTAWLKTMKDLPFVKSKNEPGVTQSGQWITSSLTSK
Chain of PxGSTδ1 (D7URW9 entry or part of it): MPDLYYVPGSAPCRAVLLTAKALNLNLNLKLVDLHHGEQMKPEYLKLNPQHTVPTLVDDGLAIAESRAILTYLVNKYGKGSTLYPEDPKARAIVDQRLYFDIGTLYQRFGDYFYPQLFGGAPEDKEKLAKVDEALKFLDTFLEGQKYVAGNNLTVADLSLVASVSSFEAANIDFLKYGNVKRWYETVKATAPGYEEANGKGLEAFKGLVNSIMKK
Chain of PxGSTσ2 (Q6F443 entry or part of it): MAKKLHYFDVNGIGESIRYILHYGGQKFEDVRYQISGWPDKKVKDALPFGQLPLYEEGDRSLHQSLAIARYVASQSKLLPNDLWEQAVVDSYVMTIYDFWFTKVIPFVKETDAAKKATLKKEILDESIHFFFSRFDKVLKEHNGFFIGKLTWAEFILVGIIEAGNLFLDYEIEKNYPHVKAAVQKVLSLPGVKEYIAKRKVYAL
Chain of PxGSTσ1 (Q6F436 entry or part of it): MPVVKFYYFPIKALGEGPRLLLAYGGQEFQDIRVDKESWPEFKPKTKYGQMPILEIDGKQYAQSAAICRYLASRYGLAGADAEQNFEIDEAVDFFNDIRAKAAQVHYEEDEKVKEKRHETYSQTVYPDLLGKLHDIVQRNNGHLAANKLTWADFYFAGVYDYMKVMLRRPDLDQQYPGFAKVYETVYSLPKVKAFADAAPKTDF

As to `COC(=O)N(C(=O)N1CO[C@@]2(C(=O)OC)Cc3cc(Cl)ccc3C2=N1)c1ccc(OC(F)(F)F)cc1` [Ind, Indoxacarb, reference compound], the LC50 of indoxacarb in series [1] (indoxacarb alone or with 200 mg/L synergist, 3rd instar larvae, mortality after 48 hours) is 74.72 µg/mL. For the same molecule, the “Resistance ratio to indoxacarb” value in series [1] (setting [15]) is reported as 143.70.
For the molecule `O=C(NNC(=O)c1cc(-c2ccccc2)nn1-c1ccccc1)c1cc[nH]c(=O)c1` [PXG1, N′-(1,3-diphenyl-1H-pyrazol-5-yl-carbonyl)-2-oxo-1,2-dihydropyridinyl-4-carbohydrazide], the half-maximal inhibitory concentration (IC50) (usually the concentration that gives 50% inhibition) in [2] is 12.1 µM; in series [3], 52.6 µM; in series [6], 8.24 µM; in series [10], 52.8 µM; in [12], 27.6 µM; in [14] it was 17.7 µM. For the same molecule, the “100 μM Inhibition rate %” value is reported as 87.80% in series [2]; 71.91% in [3]; 95.19% in series [5]; 92.32% in series [6]; 77.22% in series [10]; 58.40% in series [11]. Moreover, the “100 μM Inhibition rate %” value is reported as 70.90% in series [12], 100.60% in series [13] and 80.06% in series [14]. Further, the inhibition (commonly the change of the read-out against control, counted positive when it falls) at 100 µM in [4] was 25.5%; in series [7] it was 58.1%; in [8], 68.9%; in series [9] it was 17.6%. Besides, in series [1] (in vivo), the LC50 of indoxacarb came to 59.13 µg/mL. The “Resistance ratio to indoxacarb” value in [1] (setting [15]) is 113.71.
As to `COc1cc(C(=O)NNC(=O)c2cc(-c3ccccc3)nn2-c2ccccc2)cc(OC)c1OC` [PXG4, N′-(1,3-diphenyl-1H-pyrazol-5-yl-carbonyl)-3,4,5-trimethoxybenzohydrazine], the IC50 in series [2], in series [3], in [5], in [6], in [10] and in series [11] was above 100 µM throughout. The IC50 in series [12], in series [13] and in series [14] was above 100 µM throughout. Besides, the “100 μM Inhibition rate %” value is −7.23% in series [2]; 2.34% in series [3]; 0.00% in [5]; −10.90% in series [6]; 4.07% in series [10]; −7.57% in [11]. For the same molecule, the “100 μM Inhibition rate %” value in series [12] is given as −10.64%; in series [13] it was −5.99%; in series [14], −17.52%. The inhibition at 100 µM in [4] came out at 43.6%; in [7] it was 21.6%; in series [8] it was 18.4%; in [9], 8.88%.
Turning to `Cc1csc(CC(=O)NNC(=O)c2cc(-c3ccccc3)nn2-c2ccccc2)n1` [PXG2, N′-[2-(4-methyl-1,3-thiazol-2-yl)acetyl]-1,3-diphenyl-1H-pyrazol-5-yl-carbohydrazide], the inhibition at 100 µM is 25.1% in [4], 14.6% in series [7], 87.8% in series [8] and -4% in [9]. In addition, the LC50 of indoxacarb in [1] (in vivo) turned out to be 39.93 µg/mL. Further, in series [1] (setting [15]), the “Resistance ratio to indoxacarb” value was 76.78.
For the molecule `N#Cc1ccc(OCC(=O)NNC(=O)c2cc(-c3ccccc3)nn2-c2ccccc2)cc1` [PXG19, 2-(4-cyanophenoxy)-N′-(1,3-diphenyl-1H-pyrazol-5-yl-carbonyl)acetohydrazide], the half-maximal inhibitory concentration (IC50) in [2], in series [3], in series [5], in series [6], in [10] and in series [11] was above 100 µM each time. In addition, the IC50 in [12], in series [13] and in series [14] was above 100 µM throughout. The “100 μM Inhibition rate %” value in [2] worked out at 15.64%; in series [3] it was 19.42%; in series [5], 47.16%; in series [6] it was 22.03%; in [10], 6.30%; in series [11], 19.64%. Moreover, the “100 μM Inhibition rate %” value in series [12] was 23.03%; in [13], 10.00%; in series [14], 31.70%. The inhibition at 100 µM amounted to 45.9% in [4], 32.5% in [7], 58.7% in series [8] and 5.57% in series [9].
Regarding `O=C(NN1C(=O)NC2(CCCCC2)C1=O)c1cc(-c2ccccc2)nn1-c1ccccc1` [PXG6], the IC50 in [2], in [3], in series [5], in [6], in [10] and in series [11] was above 100 µM in each case. Moreover, the concentration for half-maximal inhibition (IC50) in [12], in [13] and in series [14] was above 100 µM each time. The “100 μM Inhibition rate %” value is 13.70% in series [2]; 18.21% in series [3]; 38.85% in [5]; 15.98% in series [6]; 23.21% in [10]; 11.37% in series [11]. Also, the “100 μM Inhibition rate %” value in series [12] is 21.15%; in series [13], −1.46%; in series [14], 6.90%. Besides, the inhibition at 100 µM in [4] is 49.1%; in series [7] it was 33.6%; in series [8], 12.2%; in series [9] it was 4.85%.
